Values joined by “and” are separate entries in the source; they are usually repeats but may differ in a detail not shown here. Equal values may be shown once.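 Following 48 hours of exposure in 96-well plates, responses at five concentrations were used to interpolate endpoints linearly. The concentration for 50% growth inhibition is given as GI50. At the TGI there is no net growth.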
Legend:
Assay in all cases: NCI tumour cell line growth inhibition, 48 h
COLO 205 colon = system: COLO 205 colon
RXF 393 renal = system: RXF 393 renal
NCI-H460 lung = system: NCI-H460 lung
HOP-62 NSCLC = system: HOP-62 NSCLC
SNB-19 CNS = system: SNB-19 CNS
IGROV1 ovarian = system: IGROV1 ovarian
DU-145 prostate = system: DU-145 prostate
M19-MEL melanoma = system: M19-MEL melanoma
KM20L2 colon = system: KM20L2 colon
HOP-92 NSCLC = system: HOP-92 NSCLC
HT29 colon = system: HT29 colon
CAKI-1 renal = system: CAKI-1 renal
A498 renal = system: A498 renal
SR leukemia = system: SR leukemia
OVCAR-4 ovarian = system: OVCAR-4 ovarian
MALME-3M melanoma = system: MALME-3M melanoma
UACC-62 melanoma = system: UACC-62 melanoma
SN12C renal = system: SN12C renal
P388 leukemia = system: P388 leukemia
SNB-78 CNS = system: SNB-78 CNS
HCT-15 colon = system: HCT-15 colon
TK-10 renal = system: TK-10 renal
SK-MEL-5 melanoma = system: SK-MEL-5 melanoma
UO-31 renal = system: UO-31 renal
EKVX NSCLC = system: EKVX NSCLC
NCI/ADR-RES ovarian = system: NCI/ADR-RES ovarian
DLD-1 colon = system: DLD-1 colon
M14 melanoma = system: M14 melanoma
SF-539 CNS = system: SF-539 CNS
OVCAR-8 ovarian = system: OVCAR-8 ovarian
HCT-116 colon = system: HCT-116 colon
OVCAR-3 ovarian = system: OVCAR-3 ovarian
K-562 leukemia = system: K-562 leukemia
MOLT-4 leukemia = system: MOLT-4 leukemia
XF 498 CNS = system: XF 498 CNS
RPMI-8226 leukemia = system: RPMI-8226 leukemia
HCC-2998 colon = system: HCC-2998 colon
SK-MEL-2 melanoma = system: SK-MEL-2 melanoma
ACHN renal = system: ACHN renal
MDA-MB-231 breast = system: MDA-MB-231 breast
NCI-H522 lung = system: NCI-H522 lung
CCRF-CEM leukemia = system: CCRF-CEM leukemia
OVCAR-5 ovarian = system: OVCAR-5 ovarian
LOX IMVI melanoma = system: LOX IMVI melanoma
T-47D breast = system: T-47D breast
U251 CNS = system: U251 CNS
SF-268 CNS = system: SF-268 CNS
UACC-257 melanoma = system: UACC-257 melanoma
HL-60(TB) leukemia = system: HL-60(TB) leukemia
A549 NSCLC = system: A549 NSCLC
PC-3 prostate = system: PC-3 prostate
DMS 273 small cell lung = system: DMS 273 small cell lung
NCI-H226 lung = system: NCI-H226 lung
P388/ADR leukemia = system: P388/ADR leukemia
KM12 colon = system: KM12 colon
MCF7 breast = system: MCF7 breast
SNB-75 CNS = system: SNB-75 CNS
SW-620 colon = system: SW-620 colon
NCI-H23 lung = system: NCI-H23 lung

Q: `COc1ccc(CC2C(=O)NC(C)C(=O)N(C)C3Cc4ccc(cc4)Oc4cc(ccc4O)CC(C(=O)NC(C)C(=O)NC(C)C(=O)N2C)N(C)C3=O)cc1` (stereo not given) was tested. Which GI50 (COLO 205 colon) did it give?
A: 0.000278 µM

Q: And the TGI (COLO 205 colon)?
A: 0.0745 µM

Q: And the TGI (RXF 393 renal)?
A: 0.0731 µM

Q: And the GI50 (NCI-H460 lung)?
A: 0.000156 µM

Q: And the TGI (NCI-H460 lung)?
A: 0.0284 µM and 0.106 µM and 0.0325 µM

Q: And the GI50 (HOP-62 NSCLC)?
A: 0.00218 µM

Q: What about the GI50 (SNB-19 CNS) of the same compound?
A: < 0.0001 µM

Q: And the GI50 (IGROV1 ovarian)?
A: < 0.0001 µM

Q: And the TGI (IGROV1 ovarian)?
A: 0.0203 µM

Q: And the TGI (DU-145 prostate)?
A: 0.00288 µM

Q: And the TGI (M19-MEL melanoma)?
A: 0.0192 µM

Q: What about the TGI (KM20L2 colon) of the same compound?
A: 0.49 µM

Q: And the GI50 (HOP-92 NSCLC)?
A: 0.000108 µM

Q: What about the TGI (HOP-92 NSCLC) of the same compound?
A: 0.000866 µM

Q: What about the GI50 (HT29 colon) of the same compound?
A: < 0.0001 µM

Q: What about the TGI (HT29 colon) of the same compound?
A: 0.0347 µM and 0.0161 µM and 0.152 µM

Q: And the GI50 (CAKI-1 renal)?
A: 0.497 µM and 0.647 µM and 0.0727 µM

Q: What about the TGI (A498 renal) of the same compound?
A: 0.0147 µM and 0.0709 µM

Q: And the TGI (SR leukemia)?
A: 0.112 µM

Q: And the GI50 (OVCAR-4 ovarian)?
A: < 0.0001 µM

Q: And the TGI (OVCAR-4 ovarian)?
A: 0.523 µM and 0.131 µM and 0.088 µM

Q: What about the GI50 (MALME-3M melanoma) of the same compound?
A: < 0.0001 µM

Q: What about the TGI (UACC-62 melanoma) of the same compound?
A: 0.161 µM and 0.0223 µM

Q: And the GI50 (SN12C renal)?
A: 0.208 µM

Q: What about the TGI (SN12C renal) of the same compound?
A: 0.281 µM and 0.536 µM

Q: What about the TGI (P388 leukemia) of the same compound?
A: 0.0177 µM

Q: And the TGI (SNB-78 CNS)?
A: 0.0256 µM

Q: What about the GI50 (HCT-15 colon) of the same compound?
A: 1.27 µM

Q: What about the TGI (HCT-15 colon) of the same compound?
A: 14.9 µM

Q: And the TGI (TK-10 renal)?
A: 0.979 µM and 0.21 µM

Q: And the GI50 (SK-MEL-5 melanoma)?
A: 0.00102 µM

Q: What about the TGI (SK-MEL-5 melanoma) of the same compound?
A: 0.0532 µM and 0.127 µM and 0.0679 µM

Q: And the GI50 (UO-31 renal)?
A: 0.24 µM

Q: What about the TGI (UO-31 renal) of the same compound?
A: 5.75 µM and 4.16 µM

Q: And the GI50 (EKVX NSCLC)?
A: 0.00125 µM

Q: And the TGI (EKVX NSCLC)?
A: 0.144 µM and 0.0424 µM

Q: What about the GI50 (NCI/ADR-RES ovarian) of the same compound?
A: 15.2 µM

Q: What about the TGI (NCI/ADR-RES ovarian) of the same compound?
A: 78.6 µM

Q: And the TGI (DLD-1 colon)?
A: 1.09 µM

Q: And the GI50 (M14 melanoma)?
A: 0.0107 µM

Q: What about the TGI (M14 melanoma) of the same compound?
A: 0.518 µM and 0.36 µM

Q: What about the GI50 (SF-539 CNS) of the same compound?
A: < 0.0001 µM

Q: And the TGI (SF-539 CNS)?
A: 0.0219 µM and 0.0288 µM

Q: What about the GI50 (OVCAR-8 ovarian) of the same compound?
A: 0.00034 µM

Q: What about the TGI (OVCAR-8 ovarian) of the same compound?
A: 0.144 µM and 0.0379 µM

Q: And the GI50 (HCT-116 colon)?
A: < 0.0001 µM

Q: What about the TGI (HCT-116 colon) of the same compound?
A: 0.112 µM and 0.0554 µM

Q: And the GI50 (OVCAR-3 ovarian)?
A: 0.000244 µM

Q: And the TGI (OVCAR-3 ovarian)?
A: 0.0438 µM

Q: What about the GI50 (K-562 leukemia) of the same compound?
A: < 0.0001 µM

Q: And the TGI (K-562 leukemia)?
A: 2.01 µM

Q: What about the GI50 (MOLT-4 leukemia) of the same compound?
A: < 0.0001 µM

Q: What about the TGI (XF 498 CNS) of the same compound?
A: 0.0224 µM

Q: What about the GI50 (RPMI-8226 leukemia) of the same compound?
A: < 0.0001 µM

Q: What about the TGI (RPMI-8226 leukemia) of the same compound?
A: 0.0327 µM and 0.0179 µM

Q: And the GI50 (HCC-2998 colon)?
A: < 0.0001 µM

Q: And the TGI (HCC-2998 colon)?
A: 0.0168 µM and 0.0292 µM

Q: And the GI50 (SK-MEL-2 melanoma)?
A: < 0.0001 µM

Q: And the GI50 (ACHN renal)?
A: 0.45 µM

Q: What about the TGI (ACHN renal) of the same compound?
A: 45 µM

Q: What about the TGI (MDA-MB-231 breast) of the same compound?
A: 0.0671 µM

Q: And the GI50 (NCI-H522 lung)?
A: < 0.0001 µM

Q: And the GI50 (CCRF-CEM leukemia)?
A: < 0.0001 µM

Q: And the TGI (CCRF-CEM leukemia)?
A: 0.122 µM

Q: What about the TGI (OVCAR-5 ovarian) of the same compound?
A: 0.0305 µM and 0.0607 µM

Q: What about the GI50 (LOX IMVI melanoma) of the same compound?
A: < 0.0001 µM

Q: What about the TGI (T-47D breast) of the same compound?
A: 0.201 µM and 0.0219 µM

Q: What about the GI50 (U251 CNS) of the same compound?
A: < 0.0001 µM

Q: And the GI50 (SF-268 CNS)?
A: < 0.0001 µM

Q: What about the GI50 (UACC-257 melanoma) of the same compound?
A: < 0.0001 µM

Q: What about the GI50 (HL-60(TB) leukemia) of the same compound?
A: < 0.0001 µM

Q: What about the TGI (A549 NSCLC) of the same compound?
A: 0.193 µM and 0.599 µM and 0.306 µM

Q: And the TGI (PC-3 prostate)?
A: 0.000246 µM

Q: And the TGI (DMS 273 small cell lung)?
A: 0.0532 µM

Q: And the GI50 (NCI-H226 lung)?
A: 0.00929 µM

Q: And the TGI (NCI-H226 lung)?
A: 0.624 µM

Q: And the TGI (P388/ADR leukemia)?
A: 20.6 µM

Q: And the GI50 (KM12 colon)?
A: < 0.0001 µM

Q: And the TGI (KM12 colon)?
A: 0.127 µM

Q: What about the GI50 (MCF7 breast) of the same compound?
A: < 0.0001 µM

Q: And the GI50 (SNB-75 CNS)?
A: < 0.0001 µM

Q: And the TGI (SNB-75 CNS)?
A: 0.0214 µM

Q: What about the GI50 (SW-620 colon) of the same compound?
A: 0.000157 µM

Q: And the GI50 (NCI-H23 lung)?
A: < 0.0001 µM

Q: What about the TGI (NCI-H23 lung) of the same compound?
A: 0.0293 µM and 0.0212 µM and 0.158 µM
